From patent publication US11059718B2, “Methods and compositions using peptides and proteins with C-terminal elements” (Sanford Burnham Prebys Medical Discovery Institute, priority 2009, dated 2021)

Tests used:
[1] = tested on: tumor; details: VEGF locally superfused on tumors; cited from earlier work
[2] = tested on: heart (cardiomyocyte apoptosis); assay: TUNEL staining of heart sections after DOX-liposome treatment; format: in vivo, mice; details: 1 mg DOX/kg + iRGD daily, 17 days
Protocol: (FIGS. 14A and 14B) Nude mice bearing orthotopic 22Rv1 human prostate tumors were intravenously injected with DOX-liposomes (3 mg DOX/kg) followed 5 min later by 100 nmol iRGD or PBS. Tumors and tissues were collected 3 hours later. In (FIG. 14A), the tumors were sectioned and stained with an anti-CD31 antibody. The doxorubicin is represented by the light specs that look like four halos in the left panel. Scale bars=200 μm, n=3. In (FIG. 14B), DOX in the tissues was quantified. […] The tumors were harvested and weighed after 17 days of treatment. The number of mice in each group was 5. One of 3 experiments that gave similar results is shown. (FIG. 14D) TUNEL staining was performed immunohistochemically on tissue sections of the tumor and heart samples from the treatment study, and quantified for positivity. Statistical analyses were performed with Student's r-test in (FIG. 14B), and ANOVA in (FIG. 14C) and (FIG. 14D); error bars, s.e.m.; n.s., not significant; single asterisk, p<0.05; double asterisk, p<0.01; triple asterisk, p<0.001. […]
Cryo-sections were immunohistochemically stained, scanned with a Scanscope CM-1 scanner, and positively stained areas were quantified with the ImageScope software (Aperio Technologies, Vista, Calif.; Sugahara et al., 2009). […]

[3] = tested on: orthotopic 22Rv-1 human prostate cancer xenografts; details: mouse, in vivo
Protocol: The circulation time was 2 hrs. for the free peptides, 15 min. for the peptide-displaying phage, and 3 hrs. for the peptide-coupled micelles. […] Representative fields from multiple sections of each of these three tumors are shown. Scale bars=50 μm. […] The samples were subjected to image analysis with Scanscope CM-1 scanner for quantification of the FAM-positive areas. Statistical analysis was performed with Student's t-test. n=3; error bars, s.e.m.; triple asterisk, p<0.001.

Row | Compound | enhancement of extravasation of albumin and nanoparticles within the tumor [1] | cardiomyocyte apoptosis (TUNEL), combo group [2] | homing to normal tissue [3]
1 | VEGF | up to 4 fold |  | 
2 | N=C(N)NCCC[C@@H]1NC(=O)[C@@H](N)CSSC[C@@H](C(=O)O)NC(=O)[C@H](CC(=O)O)NC(=O)[C@@H]2CCCN2C(=O)CNC(=O)[C@H](CCCCN)NC(=O)[C@H](CC(=O)O)NC(=O)CNC1=O [iRGD] |  | minimally present | does not detectably home to any normal tissue
